# Reference: PMC3661511, “Impact of Glucocorticoid Receptor Density on Ligand-Independent Dimerization, Cooperative Ligand-Binding and Basal Priming of Transactivation: A Cell Culture Model” (PLoS ONE, 2013)
# Like-named read-outs stand apart in the source and are kept apart here.
# T1: GRwt (Homo sapiens, UniProt P04150)
# T1 sequence (P04150 1-777): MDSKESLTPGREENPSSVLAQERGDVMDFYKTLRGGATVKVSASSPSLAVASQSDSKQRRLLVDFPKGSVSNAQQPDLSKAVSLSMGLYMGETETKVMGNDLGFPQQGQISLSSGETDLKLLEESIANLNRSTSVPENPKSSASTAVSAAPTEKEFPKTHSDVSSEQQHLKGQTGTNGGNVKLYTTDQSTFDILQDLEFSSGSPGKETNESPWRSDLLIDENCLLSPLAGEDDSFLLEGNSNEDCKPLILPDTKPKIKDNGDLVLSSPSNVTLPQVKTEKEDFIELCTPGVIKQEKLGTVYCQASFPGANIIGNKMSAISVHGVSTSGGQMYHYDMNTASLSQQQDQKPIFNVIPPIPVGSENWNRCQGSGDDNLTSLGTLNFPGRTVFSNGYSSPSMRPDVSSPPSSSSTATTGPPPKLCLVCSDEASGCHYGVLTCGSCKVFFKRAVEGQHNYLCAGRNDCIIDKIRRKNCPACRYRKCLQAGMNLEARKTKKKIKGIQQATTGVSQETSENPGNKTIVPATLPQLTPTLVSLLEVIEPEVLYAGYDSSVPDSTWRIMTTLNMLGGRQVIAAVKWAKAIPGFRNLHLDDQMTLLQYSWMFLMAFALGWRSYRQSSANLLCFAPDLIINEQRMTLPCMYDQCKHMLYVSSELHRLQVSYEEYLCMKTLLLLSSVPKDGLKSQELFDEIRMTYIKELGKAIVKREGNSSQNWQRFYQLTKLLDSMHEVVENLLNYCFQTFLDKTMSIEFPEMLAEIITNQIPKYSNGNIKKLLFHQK
# T2: GRdim (Homo sapiens, UniProt P04150, A458T)
# T2 sequence (P04150 1-777 A458T): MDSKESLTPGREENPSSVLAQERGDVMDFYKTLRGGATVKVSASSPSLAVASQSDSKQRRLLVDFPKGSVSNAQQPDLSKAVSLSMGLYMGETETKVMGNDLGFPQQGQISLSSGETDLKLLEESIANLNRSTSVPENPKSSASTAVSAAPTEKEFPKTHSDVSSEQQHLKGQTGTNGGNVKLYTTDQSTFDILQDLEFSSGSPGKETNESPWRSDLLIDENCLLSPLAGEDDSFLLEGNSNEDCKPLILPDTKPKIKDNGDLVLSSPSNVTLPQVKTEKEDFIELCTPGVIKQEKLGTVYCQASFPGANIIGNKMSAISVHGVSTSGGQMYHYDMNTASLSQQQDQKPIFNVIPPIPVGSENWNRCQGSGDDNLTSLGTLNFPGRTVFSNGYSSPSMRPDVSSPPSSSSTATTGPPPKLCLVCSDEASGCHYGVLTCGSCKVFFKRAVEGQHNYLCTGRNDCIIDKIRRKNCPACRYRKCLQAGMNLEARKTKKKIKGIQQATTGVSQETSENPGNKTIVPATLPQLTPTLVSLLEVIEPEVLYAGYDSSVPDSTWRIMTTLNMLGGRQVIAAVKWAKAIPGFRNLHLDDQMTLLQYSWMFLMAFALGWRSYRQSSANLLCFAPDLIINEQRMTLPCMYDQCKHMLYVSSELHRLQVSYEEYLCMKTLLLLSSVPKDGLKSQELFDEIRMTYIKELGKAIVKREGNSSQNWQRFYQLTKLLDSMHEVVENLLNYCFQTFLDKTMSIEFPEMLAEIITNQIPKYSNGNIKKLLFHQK
# T3: Flag-tagged human glucocorticoid receptor alpha, wild type (pEFFlaghGRα) (human, UniProt P04150 1-777)
# T3 construct: glucocorticoid receptor alpha (hGRα), human, wild type; construct pEFFlaghGRα, molecular mass 96 kDa as printed; also called Flag-GR; Flag-GRwt; source: COS-1, transiently transfected (DEAE-dextran), in lysate
# T3 sequence (looked up): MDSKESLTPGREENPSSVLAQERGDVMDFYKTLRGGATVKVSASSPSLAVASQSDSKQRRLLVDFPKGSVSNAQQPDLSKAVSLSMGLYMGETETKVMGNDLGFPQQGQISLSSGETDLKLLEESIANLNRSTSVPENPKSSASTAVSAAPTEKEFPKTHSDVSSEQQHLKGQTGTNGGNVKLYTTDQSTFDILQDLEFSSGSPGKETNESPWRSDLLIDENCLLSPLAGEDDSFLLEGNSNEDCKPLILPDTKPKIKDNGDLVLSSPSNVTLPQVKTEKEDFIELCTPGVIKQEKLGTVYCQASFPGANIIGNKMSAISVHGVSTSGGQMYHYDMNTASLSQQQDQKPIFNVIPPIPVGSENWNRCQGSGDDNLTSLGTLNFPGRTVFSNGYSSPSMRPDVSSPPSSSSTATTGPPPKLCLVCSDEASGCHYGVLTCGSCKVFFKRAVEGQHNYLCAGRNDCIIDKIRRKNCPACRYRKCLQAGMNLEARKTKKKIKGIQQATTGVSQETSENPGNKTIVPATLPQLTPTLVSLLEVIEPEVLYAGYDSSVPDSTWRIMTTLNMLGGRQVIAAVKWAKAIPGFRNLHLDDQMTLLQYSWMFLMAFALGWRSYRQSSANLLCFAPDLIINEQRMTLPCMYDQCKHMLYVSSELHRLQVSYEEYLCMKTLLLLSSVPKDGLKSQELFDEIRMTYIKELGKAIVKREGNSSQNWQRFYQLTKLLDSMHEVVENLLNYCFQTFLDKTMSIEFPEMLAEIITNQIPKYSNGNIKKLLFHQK
# What was measured:
# GRwt [1] = molecular target: T1, GRwt; assay: Promoter-reporter transactivation (pTAT-GRE2-E1b-luc) in COS-1 cells, GRwt; format: cell-based; settings: for EC50: read-out: Potency (log EC50) (converted)
# Protocol: (§1) Cells were transfected with low, medium or high GRwt, low or medium GRdim and 3000 ng pTAT-GRE2-E1b-luc filled to 14550 ng total plasmid with empty vector. Cells were replated 24 h later into 96-well plates (4×10^4 cells/well) in charcoal-stripped DMEM. […] Cells were lysed with 30 µl of passive lysis buffer (Promega), and subjected to a freeze thaw cycle. Luciferase activity was determined using a luciferase assay kit (Promega). Light emission was measured in a Veritas microplate luminometer (Turner Biosystems). Luciferase relative light units were normalized against protein concentrations. Sigmoidal dose-response curves were fit to the experimental data which generated basal induction (bottom), maximal induction (top-bottom), fold-induction (top/bottom), and log EC50.
# GRdim = molecular target: T2, GRdim; assay: Promoter-reporter transactivation (pTAT-GRE2-E1b-luc) in COS-1 cells, GRdim; format: cell-based
# Protocol: as §1
# GRwt [2] = settings: COS-1 cells transiently transfected with high levels of GRwt; cited from earlier work
# [3] = molecular target: T3, Flag-tagged human glucocorticoid …; assay: co-IP; low GR levels co-transfected in COS-1 cells; cells treated 1 h with vehicle (ethanol), 10^-6 M DEX or 10^-5 M CpdA; 600 µg lysate protein on anti-FLAG M2 affinity gel beads, 16 h at 4°C, Buffer A with 2.5% casein; immunoblot with anti-GR; GFP-GR pull-down normalized to Flag-GR; settings: partners not purified
# [4] = molecular target: T3, Flag-tagged human glucocorticoid …; assay: co-IP; medium or high GR levels co-transfected in COS-1 cells; cells treated 1 h with vehicle (ethanol) or 10^-6 M DEX; 200 µg lysate protein on anti-FLAG M2 affinity gel beads, 16 h at 4°C, Buffer A with 2.5% casein; immunoblot with anti-GR; GFP-GR pull-down normalized to Flag-GR; settings: partners not purified
molecule,measurement,setting,value
"CC#C[C@]1(O)CC[C@H]2[C@@H]3CCC4=CC(=O)CCC4=C3[C@@H](c3ccc(N(C)C)cc3)C[C@@]21C [RU486, mifepristone]",Maximal induction (RLU/mg protein),GRwt [1]; GRwt concentration Low,1.8 x 10^4 ± 3.7 x 10^3 RLU/mg protein
same,Maximal induction (RLU/mg protein),GRwt [1]; GRwt concentration Medium,6.4 x 10^4 ± 7.5 x 10^3 RLU/mg protein
same,Maximal induction (RLU/mg protein),GRdim; GRdim concentration Low,7.1 x 10^4 ± 8.7 x 10^3 RLU/mg protein
same,Maximal induction (RLU/mg protein),GRdim; GRdim concentration Medium,4.0 x 10^5 ± 7.8 x 10^4 RLU/mg protein
"CC(=O)O[C@]1(C(C)=O)CC[C@H]2[C@@H]3C[C@H](C)C4=CC(=O)CC[C@]4(C)[C@H]3CC[C@@]21C [MPA, medroxyprogesterone acetate]",Maximal induction (RLU/mg protein),GRwt [1]; GRwt concentration Low,3.5 x 10^4 ± 8.3 x 10^3 RLU/mg protein
same,EC50,"GRwt [1]; GRwt concentration Low, pTAT-GRE2-Elb-luc, 24h",23.4 nM
same,Maximal induction (RLU/mg protein),GRwt [1]; GRwt concentration Medium,1.5 x 10^5 ± 2.3 x 10^4 RLU/mg protein
same,EC50,GRwt [1]; GRwt concentration Medium,8.71 nM
"C[C@]12CCC(=O)C=C1CC[C@@H]1[C@@H]2[C@@H](O)C[C@@]2(C)[C@H]1CC[C@]2(O)C(=O)CO [F, cortisol]",Maximal induction (RLU/mg protein),GRwt [1]; GRwt concentration Low,2.8 x 10^4 ± 7.2 x 10^3 RLU/mg protein
same,Maximal induction (RLU/mg protein),GRwt [1]; GRwt concentration Medium,8.8 x 10^4 ± 6 x 10^3 RLU/mg protein
same,Maximal induction (RLU/mg protein),GRdim; GRdim concentration Low,3.7 x 10^4± 8.3 x 10^3 RLU/mg protein
same,Maximal induction (RLU/mg protein),GRdim; GRdim concentration Medium,2.2 x 10^5 ± 5.7 x 10^4 RLU/mg protein
"C[C@@H]1C[C@H]2[C@@H]3CCC4=CC(=O)C=C[C@]4(C)[C@@]3(F)[C@@H](O)C[C@]2(C)[C@@]1(O)C(=O)CO [DEX, Dexamethasone]",Kd,GRwt [2],12.6 nM
"GFP-tagged dimerization-deficient glucocorticoid receptor (pEGFP-C2-GRA477T, carrying the GRdim sequence from pHisGRA458T) (receptor, human, UniProt P04150 1-777, looked up, the plasmid's name says A477T, the text A458T; also called GFP-GRdim; source: COS-1, transiently transfected (DEAE-dextran), in lysate) MDSKESLTPGREENPSSVLAQERGDVMDFYKTLRGGATVKVSASSPSLAVASQSDSKQRRLLVDFPKGSVSNAQQPDLSKAVSLSMGLYMGETETKVMGNDLGFPQQGQISLSSGETDLKLLEESIANLNRSTSVPENPKSSASTAVSAAPTEKEFPKTHSDVSSEQQHLKGQTGTNGGNVKLYTTDQSTFDILQDLEFSSGSPGKETNESPWRSDLLIDENCLLSPLAGEDDSFLLEGNSNEDCKPLILPDTKPKIKDNGDLVLSSPSNVTLPQVKTEKEDFIELCTPGVIKQEKLGTVYCQASFPGANIIGNKMSAISVHGVSTSGGQMYHYDMNTASLSQQQDQKPIFNVIPPIPVGSENWNRCQGSGDDNLTSLGTLNFPGRTVFSNGYSSPSMRPDVSSPPSSSSTATTGPPPKLCLVCSDEASGCHYGVLTCGSCKVFFKRAVEGQHNYLCTGRNDCIIDKIRRKNCPACRYRKCLQAGMNLEARKTKKKIKGIQQATTGVSQETSENPGNKTIVPATLPQLTPTLVSLLEVIEPEVLYAGYDSSVPDSTWRIMTTLNMLGGRQVIAAVKWAKAIPGFRNLHLDDQMTLLQYSWMFLMAFALGWRSYRQSSANLLCFAPDLIINEQRMTLPCMYDQCKHMLYVSSELHRLQVSYEEYLCMKTLLLLSSVPKDGLKSQELFDEIRMTYIKELGKAIVKREGNSSQNWQRFYQLTKLLDSMHEVVENLLNYCFQTFLDKTMSIEFPEMLAEIITNQIPKYSNGNIKKLLFHQK","GFP-GR pull-down after ethanol, relative to DEX-induced GRwt set at 100 percent (low GR level)",[3],36 to 66%
same,"GFP-GR pull-down after ethanol, relative to DEX-induced GRwt set at 100 percent (high GR level)",[4],36 to 66%
